In the supplement of paper PMC10307832:

Tests used:
Assay in all cases: relative viability (nuclei count vs DMSO), 5 days (fraction); higher = more cells survive
[1] = compound: Cc1ccc2nc(NCCN)c3ncc(C)n3c2c1 + Nc1nc2[nH]cc(CCc3ccc(C(=O)N[C@@H](CCC(=O)O)C(=O)O)cc3)c2c(=O)[nH]1 [Pemetrexed] (partner 0.2 µM)
Outline: (§1)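 Each reported value is a median over duplicate plates. It expresses relative viability: treated-well nuclei count divided by vehicle-well nuclei count. Lung cancer cell lines in 1536-well plates were dosed by pin tool a day after seeding, alone with one drug or with a fixed anchor-drug dose plus five library-drug doses (not always all listed) in √10 steps, and nuclei were counted after 5 days.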

Salubrinal + Pemetrexed = compound: O=C(/C=C/c1ccccc1)NC(NC(=S)Nc1cccc2cccnc12)C(Cl)(Cl)Cl [Salubrinal] + Nc1nc2[nH]cc(CCc3ccc(C(=O)N[C@@H](CCC(=O)O)C(=O)O)cc3)c2c(=O)[nH]1 [Pemetrexed] (partner 0.2 µM)
Outline: as §1

Salubrinal + Trametinib = compound: O=C(/C=C/c1ccccc1)NC(NC(=S)Nc1cccc2cccnc12)C(Cl)(Cl)Cl [Salubrinal] + CC(=O)Nc1cccc(-n2c(=O)n(C3CC3)c(=O)c3c(Nc4ccc(I)cc4F)n(C)c(=O)c(C)c32)c1 [Trametinib] (partner 0.02 µM)
Outline: as §1

Salubrinal + Foretinib = compound: O=C(/C=C/c1ccccc1)NC(NC(=S)Nc1cccc2cccnc12)C(Cl)(Cl)Cl [Salubrinal] + COc1cc2c(Oc3ccc(NC(=O)C4(C(=O)Nc5ccc(F)cc5)CC4)cc3F)ccnc2cc1OCCCN1CCOCC1 [Foretinib] (partner 0.25 µM)
Outline: as §1

Row | Cell Line | relative viability ([1]; first compound 0.04 µM) | relative viability ([1]; first compound 0.1265 µM) | relative viability ([1]; first compound 0.4 µM) | relative viability ([1]; first compound 1.265 µM) | relative viability ([1]; first compound 4 µM) | relative viability (Salubrinal + Pemetrexed; first compound 0.08 µM) | relative viability (Salubrinal + Pemetrexed; first compound 0.253 µM) | relative viability (Salubrinal + Pemetrexed; first compound 0.8 µM) | relative viability (Salubrinal + Pemetrexed; first compound 2.53 µM) | relative viability (Salubrinal + Pemetrexed; first compound 8 µM) | relative viability (Salubrinal + Trametinib; first compound 0.08 µM) | relative viability (Salubrinal + Trametinib; first compound 0.253 µM) | relative viability (Salubrinal + Trametinib; first compound 0.8 µM) | relative viability (Salubrinal + Trametinib; first compound 2.53 µM) | relative viability (Salubrinal + Trametinib; first compound 8 µM) | relative viability (Salubrinal + Foretinib; first compound 0.08 µM) | relative viability (Salubrinal + Foretinib; first compound 0.253 µM) | relative viability (Salubrinal + Foretinib; first compound 0.8 µM) | relative viability (Salubrinal + Foretinib; first compound 2.53 µM) | relative viability (Salubrinal + Foretinib; first compound 8 µM)
1 | NCI-H522 | 1.02 | 1.24 | 0.766 | 1.28 | 0.95 | 1.24 | 0.933 | 1.09 | 1.06 | 1.07 | 0.631 | 0.802 | 0.639 | 0.859 | 0.709 | – | – | – | – | –
2 | HCC-15 | 0.233 | 0.203 | 0.223 | 0.252 | 0.236 | 0.205 | 0.266 | 0.234 | 0.231 | 0.211 | 0.444 | 0.36 | 0.379 | 0.378 | 0.381 | 1.21 | 0.999 | 1.07 | 1.08 | 1.06
3 | A-427 | 0.979 | 0.939 | 1.02 | 0.95 | 0.948 | 0.957 | 0.964 | 1.17 | 1.03 | 1.1 | 0.782 | 0.812 | 0.791 | 0.689 | 0.764 | 0.993 | 1.32 | 1.18 | 1.02 | 1.17
4 | NCI-H2228 | 0.316 | 0.292 | 0.357 | 0.361 | 0.419 | 0.334 | – | 0.404 | 0.326 | 0.277 | 0.457 | – | 0.745 | 0.385 | 0.622 | 0.976 | 0.875 | 0.953 | 0.844 | 0.868
5 | NCI-H1734 | 0.438 | 0.395 | 0.413 | 0.48 | 0.496 | 0.423 | 0.454 | 0.41 | 0.427 | 0.409 | 0.704 | 0.742 | 0.787 | 0.656 | 0.597 | 0.944 | 0.774 | 0.981 | 0.841 | 0.779
6 | PC-14 | 0.135 | 0.14 | 0.157 | 0.15 | 0.151 | 0.114 | 0.154 | 0.147 | 0.124 | 0.108 | 0.695 | 0.753 | 0.736 | 0.588 | 0.629 | 1.02 | 0.873 | 1.1 | 1 | 0.931
7 | NCI-H1915 | 0.511 | 0.502 | 0.463 | 0.519 | 0.442 | 0.477 | – | 0.562 | 0.495 | 0.466 | 0.219 | – | 0.583 | 0.314 | 0.311 | 1.11 | 0.932 | 1.28 | 1.14 | 1.08
8 | NCI-H1666 | 0.965 | 0.817 | 0.84 | 0.736 | 0.795 | 0.837 | 0.804 | 0.989 | 0.864 | 0.845 | 0.802 | 0.869 | 0.847 | 0.903 | 0.783 | 0.987 | 0.924 | 0.98 | 0.999 | 1.01
9 | HCC-366 | 0.157 | 0.202 | 0.146 | 0.126 | 0.165 | 0.194 | – | 0.165 | 0.153 | 0.161 | 0.509 | – | 0.379 | 0.306 | 0.233 | 0.929 | 0.947 | 0.96 | 0.943 | 0.915
10 | NCI-H2170 | 0.258 | 0.305 | 0.26 | 0.257 | 0.262 | 0.258 | 0.273 | 0.318 | 0.258 | 0.257 | 1.1 | 0.658 | 0.979 | 0.941 | 0.925 | 1.14 | 0.808 | 1.07 | 1.04 | 0.888
11 | SW 1573 | 1.01 | 0.828 | 0.912 | 0.992 | 0.611 | 0.952 | 0.586 | 0.941 | 0.69 | 0.742 | 0.789 | 0.615 | 0.588 | 0.485 | 0.469 | 0.875 | 0.719 | 0.979 | 0.954 | 1.07
12 | NCI-H661 | 0.909 | 0.949 | 0.958 | 0.891 | 0.868 | 0.942 | 0.808 | 0.936 | 0.89 | 0.91 | 0.781 | 0.523 | 0.574 | 0.577 | 0.546 | 0.996 | 1.06 | 1.05 | 0.991 | 1.02
13 | PC-3 [JPC-3] | 1.21 | 1.03 | 1.1 | 0.987 | 1.09 | 0.879 | 0.919 | 1.49 | 1.02 | 1.04 | 0.734 | 0.697 | 0.65 | 0.693 | 0.651 | 0.99 | 0.918 | 1.07 | 1 | 0.998
14 | NCI-H2342 | 0.871 | 0.817 | 0.751 | 0.827 | 0.713 | 0.722 | 0.772 | 0.937 | 0.758 | 0.826 | 0.966 | 0.806 | 0.758 | 0.775 | 0.88 | 1.1 | 1.04 | 1.1 | 1.09 | 0.927
15 | Calu-6 | – | – | – | – | – | – | – | – | – | – | – | – | – | – | – | 0.979 | 0.865 | 0.907 | 0.806 | 0.803
16 | LC-2-ad | 0.303 | 0.276 | 0.268 | 0.275 | 0.291 | 0.242 | 0.276 | 0.268 | 0.272 | 0.264 | 1.01 | 0.848 | 0.885 | 0.946 | 0.917 | 0.887 | 0.939 | 0.919 | 0.966 | 0.886
17 | CAL-12T | 1.42 | 1.13 | 1.15 | 1.04 | 1.03 | 1.4 | 0.754 | 1.46 | 1.07 | 1.21 | 0.378 | 0.406 | 0.327 | 0.244 | 0.269 | 1.14 | 1.07 | 1.09 | 0.978 | 0.991
